Results published in patent US9849197B2, “Switching-type fluorescent nanoparticle probe, and fluorescent molecular imaging method using same” (KYOTO UNIVERSITY, priority 2011, dated 2017).

Assay: Change in fluorescence intensity of lactosome encapsulating fluorescent dye due to change in external environment 1
Type: physicochemical
Settings: lactosome encapsulating 20 mol % of the dye; for fluorescence intensity in the SDS solution: 5 wt % SDS 1:1, room temperature 30 minutes; for fluorescence intensity in the BSA solution: 5 wt % albumin (BSA) 1:1, room temperature 30 minutes; for fluorescence intensity in the plasma: plasma from male ddY mice 1:1, room temperature 30 minutes
From the text: In FIGS. 2(A) to 2(D), the horizontal axis represents wavelength and the vertical axis represents fluorescence intensity.

Row | fluorescence intensity in the SDS solution | fluorescence intensity in the BSA solution | fluorescence intensity in the plasma | Structure (SMILES)
1 | recovered | recovered | recovered | CC1(C)C(/C=C/C2=C(Cl)C(=C/C=C3/N(CCCCCC(=O)O)c4ccc5ccccc5c4C3(C)C)/CCC2)=[N+](CCO)c2ccc3ccccc3c21 [IC7-1]
2 | recovered | recovered | recovered | CC1(C)C(/C=C/C=C/C=C/C=C2\N(CCCCS(=O)(=O)O)c3ccc4ccccc4c3C2(C)C)=[N+](CCCCS(=O)(=O)[O-])c2ccc3ccccc3c21 [ICG, indocyanine green]
